Laboratory results taken from PMC9527238, “Glutamate and GABAA receptor crosstalk mediates homeostatic regulation of neuronal excitation in the mammalian brain” (Signal Transduction and Targeted Therapy, 2022).
Read-outs that look alike come from different tables or passages of the source.

How the values were obtained:
[1] = target: T1, rat α1β2γ2 GABAARs (Rattus norvegicus, UniProt P62813+P63138); assay: Whole-cell patch clamp of GABA-evoked currents, HEK293 cells expressing wild-type α1β2γ2; format: cell-based
T1 construct: expressed in transfected cells; host or cells: HEK293
Description: (§1) Co-expression of the α and β subunits is the minimum requirement for a functional recombinant GABAAR expressed in a heterologous cell line such as HEK293, while co-expression of the α, β and γ subunits is required for the recombinant receptor with a full pharmacological profile.[2] We therefore transiently expressed either rat α1β2 or α1β2γ2 subunits in HEK293 cells.
(§2) HEK293 cells were cultured in DMEM (Invitrogen) supplemented with 10% fetal bovine serum. Cells were grown to 40–60% confluence and transiently transfected using Lipofectamine 2000 (Invitrogen) with 1:0.5–1 plasmid/lipid ratio. Cells were transfected with a pBK-CMV expression vector containing a rat recombinant GABAAR α, β or γ subunits. Co-transections were done with a plasmid ratio of 1:1 αβ and 2:2:1 for αβγ subunit combinations, respectively. pcDNA3.1-GFP was also co-transfected along with GABAAR subunits as a transfected marker in order to facilitate the visualization of the transfected cells during electrophysiological experiments. Cells were re-plated on glass coverslips after 15–20 h transfection and were cultured for an additional 15–24 h before whole-cell patch-clamp recordings.
(§3) Whole-cell patch-clamp recordings were performed under voltage-clamp mode using an Axopatch 200B or 1D patch-clamp amplifier (Molecular Devices) on HEK293 cells and cultured neurons. Whole-cell currents were recorded at a holding potential of −60 mV, and signals were filtered at 2 kHz, digitized at 10 kHz (Digidata 1322 A). Recording pipettes (3–5 MΩ) were filled with the intracellular solution that contained (mM): CsCl 140, HEPES 10, Mg-ATP 4, QX-314 5, pH 7.20; osmolarity, 290–295 mOsm. BAPTA (10 mM) was added in the intracellular solution. The coverslips were continuously superfused with the extracellular solution containing (mM): NaCl 140, KCl 5.4, HEPES 10, MgCl2 1.0, CaCl2 1.3, glucose 20, pH 7.4; osmolarity, 305–315 mOsm. […] Dose–response curves were created by fitting data to Hill equation: I = Imax/[1 + (EC50/[A])^n], where I is the current, Imax is the maximum current, [A] is a given concentration of agonist, n is the Hill coefficient. […] All experiments were performed at room temperature.

[2] = target: T2, rat α1β2 GABAARs (Rattus norvegicus, UniProt P62813+P63138); assay: Whole-cell patch clamp of GABA-evoked currents, HEK293 cells expressing α1β2; format: cell-based
T2 construct: expressed in transfected cells; host or cells: HEK293
From the text: as §1
HEK293 cells were transiently transfected with rat GABAAR α1/β2 (a–e) or α1/β2/γ2 (f) subunits. Whole-cell voltage-clamp recordings were performed with a chloride-based intracellular recording solution at a holding membrane potential of −60 mV.
as §2, §3

[3] = test system: extrasynaptic GABAARs; assay: GABAAR-mediated tonic currents in cultured hippocampal neurons; format: cell-based, rat; conditions: prior addition of AP5 200 μM; bicuculline 10 μM
Description: (§4) GABAAR-mediated inhibitory processes in the CNS include phasic and tonic inhibitions. The phasic inhibition is primarily mediated by the activation of postsynaptic GABAARs and can be evaluated by recording miniature inhibitory postsynaptic currents (mIPSCs; Fig. 2c).
(§5) Cultured hippocampal neurons were prepared from the brains of D18 fetal Wister rats. Tissues were digested with a 0.25% trypsin solution (Invitrogen) for 25 min at 37 °C, and then mechanically dissociated using a fire-polished Pasteur pipette. Next, the cell suspension was centrifuged at 2500 × g for 50 s and the cell pellets were resuspended in DMEM containing 10% Fetal Bovine Serum (FBS; Sigma-Aldrich). Cells were seeded on poly-D-lysine-coated 24-well coverslips at a density of 2.5 × 10^5 cells/well. Cultures were maintained in a humidified incubator with 5% CO2 at 37 °C. After 24 h, plating medium was changed to Neurobasal medium supplemented with B-27 supplement and L-glutamine, and the media changed twice weekly thereafter. […]
(§6) Whole-cell patch-clamp recordings were performed under voltage-clamp mode using an Axopatch 200B or 1D patch-clamp amplifier (Molecular Devices) on HEK293 cells and cultured neurons. Whole-cell currents were recorded at a holding potential of −60 mV, and signals were filtered at 2 kHz, digitized at 10 kHz (Digidata 1322 A). […]

[4] = test system: postsynaptic GABAARs; assay: mIPSCs in cultured hippocampal neurons; format: cell-based, rat; conditions: AP5 200 μM; TTX 0.5 μM, CNQX 10 μM
Description: as §4, §5, §6

[5] = test system: native GABAARs; assay: GABA-evoked whole-cell currents in cultured hippocampal neurons; format: cell-based, rat
Description: Cultured hippocampal neurons were prepared from the brains of D18 fetal Wister rats. Tissues were digested with a 0.25% trypsin solution (Invitrogen) for 25 min at 37 °C, and then mechanically dissociated using a fire-polished Pasteur pipette. Next, the cell suspension was centrifuged at 2500 × g for 50 s and the cell pellets were resuspended in DMEM containing 10% Fetal Bovine Serum (FBS; Sigma-Aldrich). Cells were seeded on poly-D-lysine-coated 24-well coverslips at a density of 2.5 × 10^5 cells/well. Cultures were maintained in a humidified incubator with 5% CO2 at 37 °C. After 24 h, plating medium was changed to Neurobasal medium supplemented with B-27 supplement and L-glutamine, and the media changed twice weekly thereafter. Cultured neurons were used for electrophysiological recordings between 10–14 days after plating.
as §3

[6] = target: T3, α1β2 GABAARs (Rattus norvegicus, UniProt P62813+P63138); assay: [3H]glutamate binding assay, plasma membranes of HEK293 cells overexpressing α1 and β2
T3 construct: expressed in transfected cells; host or cells: HEK293
Description: For membrane preparation, transfected or non-transfected HEK293 cells were washed twice with cold PBS and harvested by scraping into 5 ml cold PBS. Cells were then centrifuged at 1200 × g for 12 min at 4 °C and medium was removed. The washing procedure was repeated twice. Then the cell pellet was re-suspended into 1 ml of 50 mM Tris-HCl buffer (pH 7.4, with protease inhibitor) and homogenized using syringes with 18-G, 21-G and 23-G needles.
To separate the membrane, the homogenate were centrifuged for 20 min at 20,000 × g at 4 °C. Then the pellet was re-suspended into 1 ml of 50 mM Tris-HCl buffer, pH 7.4 and centrifuged again. After repeating this procedure for one more time, the pellet was re-suspended into 1 ml of 50 mM Tris-HCl buffer, pH 7.4 and the protein concentration was measured.
To conduct the binding assay, 100 µg membrane enriched preparation was incubated with 40 nM [3H]-Glutamate in a total volume of 0.5 ml in 50 mM Tris-HCl buffer, pH 7.4 for 1 h on ice. […] Then the reaction was terminated by quickly filtering the solution on Whatman filter paper and washing by 3.5 ml Tris-HCl buffer. Radioactivity was measured in a Beckman liquid scintillation counter.

[7] = target: T4, GABAAR-mediated currents, β2E181G KI mice (Mus musculus, UniProt P63137, E206G); assay: Whole-cell recording of CA1 neurons, hippocampal slices of homozygous β2E181G KI mice; format: cell-based; conditions: AP5 50 µM; homozygous KI slices
T4 construct: from tissue; host or cells: acute hippocampal slices of homozygous β2E181G knock-in mice (C57BL/6J), CA1 neurons
Description: (§7) We next determined if glutamate-mediated allosteric potentiation of GABAAR function was impaired in hippocampal slices acutely prepared from postnatal 90-day-old KI mice. Whole-cell recordings of CA1 neurons were performed under voltage clamp configuration at a holding potential of −60 mV.
(§8) Mice were deeply anesthetized with urethane (1.5 g/kg, i.p.) and transcardially perfused with ice cold sucrose hypertonic cutting solution (in mM: KCl 3.0, NaH2PO4.H2O 1.25, NaHCO3 26, Na-vitamin C 0.4, Na-lactate 2.0, Na-pyruvate 2.0, D-glucose 10.0, Sucrose 220, CaCl2 0.1, MgCl2 2, MgSO4 4.0, pH 7.4, 290–300 mOsm/l) prior to decapitation as described previously.[47] After decapitation, the brain was rapidly removed and transferred to the ice cold cutting solution bubbled with 95% O2 and 5% CO2, and acute coronal brain slices (400 μm) were prepared on a Leica vibratome (VT1200S, Germany). All brain slices were placed into a standard artificial cerebral spinal fluid (ACSF) (in mM: NaCl 124, KCl 2.8, NaH2PO4.H2O 1.25, NaHCO3 26, Na-vitamin C 0.4, Na-lactate 2.0, Na-pyruvate 2.0, D-glucose 10.0, CaCl2 2, MgSO4 1.2, pH 7.4, 290–300 mOsm/l) incubated at 35 °C for 2 h prior to recording. Field excitatory postsynaptic potential (fEPSP) recordings were performed under current-clamp mode using HEKA EPC10 patch-clamp amplifier (HEKA Electronic, Lambrecht/Pfalz, Germany). […]

[8] = test system: GABAAR-mediated currents, WT mice; assay: Whole-cell recording of CA1 neurons, hippocampal slices of WT mice; format: cell-based, mouse; conditions: AP5 50 µM
Description: as §7, §8

[9] = test system: NMDA receptors; assay: NMDA receptor blockade in cultured hippocampal neurons; format: cell-based, rat; conditions: MK-801 10 μM co-applied with NMDA 50 μM through the bath for 3 min
[10] = Kainic acid-induced seizure; format: in vivo, mouse; conditions: 20 mg/kg i.p.
Description: To test the allosteric potentiation of GABAARs by presynaptically released glutamate under certain physiological conditions, we delivered five trains of four pulses of theta-burst stimulation to increase endogenous glutamate released from the presynaptic glutamatergic terminals, and compared its effect on the pharmacologically isolated eIPSCs (following blockade of both AMPAR and NMDAR-mediated EPSCs) in WT and KI mice.
Kainic acid (KA) was dissolved in sterile saline at the concentration of 20 mg/ml. KA (20 mg/kg, i.p.) or same volume of saline as vehicle control was administered by intraperitoneal injection to induce seizures. Diazepam (20 mg/kg, s.c., obtained from Children’s Hospital of Chongqing Medical University) was injected 30 min before the injection of KA. […] All experiments were performed in accordance with approved institutional animal care guidelines.

For `Cc1onc(O)c1CC(N)C(=O)O` (stereo not drawn) [AMPA, α-amino-3-hydroxyl-5-methyl-4-isoxazole-propionate], the “GABA currents in presence of ligand, compared with GABA alone” value (“GABA currents … compared with GABA alone” below) [1] was 165.8 ± 6.2% and the “GABA-mediated currents in presence of ligand, compared with currents induced by GABA alone” value [2] was 339.2 ± 38.0%.

For `N[C@H](CCCP(=O)(O)O)C(=O)O` [AP5, D-2-amino-5-phosphonovaleric acid], the “tonic current revealed by bicuculline” value [3] was 17.28 ± 2.80 pA, the mIPSC amplitude [4] was 36.6 ± 3.6 pA and the mIPSC frequency [4] was 0.90 ± 0.29 Hz. The “GABA currents … compared with GABA alone” value ([1]; ligand 100 μM each, GABA 1 μM) was 173.3 ± 3.7%, the “amplitude of GABA currents, % of the control” value ([5]; AP5 100 μM bath, GABA 0.5 μM, TTX and CNQX present) was 157.7 ± 9.1% and the “reversal potential of GABA currents (I-V curve)” value ([5]; AP5 200 µM, GABA 10 μM) was “without altering the reversal potential”. The “potentiation of GABA currents after NMDA receptor blockade” value ([5]; after MK-801 10 μM + NMDA 50 μM for 3 min, AP5 200 μM, GABA 10 μM (Fig. S1a)) was “reversibly potentiated GABA currents”, the EC50 ([5]; read-out: EC50 of AP5 enhancement of GABA currents, GABA 0.5 μM) was 150 ± 27 µM and the “[3H]glutamate binding activity in presence of competitor” value ([6]; 40 nM [3H]glutamate + 0.4 mM non-radiolabeled competitor) was 240.8 ± 36.8 CPM. For the same compound, the “GABA-evoked currents relative to baseline” value [7] was 104.6 ± 12.7%, the “GABA-evoked currents relative to baseline” value [8] was 193.5 ± 27.0% and the “GABA-mediated currents in presence of ligand, compared with currents induced by GABA alone” value ([2]; ligand 100 μM, GABA 1 μM) was 254.9 ± 33.0%.

With `N#Cc1cc2[nH]c(=O)c(=O)[nH]c2cc1[N+](=O)[O-]` [CNQX, 6-cyano-7-nitroquinoxaline-2,3-dione] the “GABA currents … compared with GABA alone” value ([1]; CNQX, concentration not given, GABA 1 μM) was 105.6 ± 6.5%, the “GABA evoked currents in presence of ligand, compared with GABA alone” value ([2]; CNQX 10 μM, GABA 1 μM) was 107.3 ± 6.5% and the “effect on GABA-evoked currents” value ([2]; CNQX 1 mM, data not shown) was “did not affect GABA-evoked currents”.

With `C[C@]12N[C@H](Cc3ccccc31)c1ccccc12` [MK-801] the NMDA receptor blockade [9] was “complete and long-lasting NMDA receptor blockade” and the “effect on GABA currents” value ([2]; MK-801, concentration not given, data not shown) was “did not affect GABA currents”.

In the case of `CN[C@H](CC(=O)O)C(=O)O` [NMDA, N-methyl-D-aspartate], the “GABA currents … compared with GABA alone” value [1] is reported as 171.7 ± 5.4% and the “GABA-mediated currents in presence of ligand, compared with currents induced by GABA alone” value [2] is reported as 267.6%.

In the case of `N[C@H](C(=O)O)[C@@H](OCc1ccccc1)C(=O)O` [TBOA, threo-β-Benzyloxyaspartic acid], the “GABA currents … compared with GABA alone” value ([1]; ligand 100 μM each, GABA 1 μM) is reported as 159.9 ± 7.8% and the “GABA-mediated currents in presence of ligand, compared with currents induced by GABA alone” value ([2]; ligand 100 μM, GABA 1 μM) is reported as 202.8 ± 18.3%.

With `C=C(C)[C@H]1CN[C@H](C(=O)O)[C@H]1CC(=O)O` [kainic acid] the “GABA currents … compared with GABA alone” value [1] was 188.7 ± 5.5%, the “latency of kainic acid-induced seizure activity” value ([10]; WT mice) was 189.6 ± 15.2 s and the “latency of kainic acid-induced seizure activity” value ([10]; β2E181G KI mice) was 161.0 ± 4.0 s. The “GABA-mediated currents in presence of ligand, compared with currents induced by GABA alone” value [2] was 388.2 ± 61.0%.

In the case of [^3H]glutamate, the “[3H]glutamate binding activity” value ([6]; 40 nM [3H]glutamate only, 100 µg membrane, 1 h on ice) is reported as 938.2 ± 82.7 CPM.
